Measured values as given in patent US8017584B2, “GD3-mimetic peptides” (Otsuka Pharmaceutical Co., Ltd., priority 2000, dated 2011).
Where “and” joins values, the source holds several entries; their conditions need not be identical. Equal values may be shown once.

Columns and labels:
[1] = tested on: T-cell-rich lymphocytes / IL-2-dependent CTLL2 cells; test: Cell response test: IL-2 activity (3H thymidine up-take of CTLL2 cells) in supernatant of spleen cells of mice immunized with R4 peptide (R4-KLH); type: cell-based, mouse; details: mice immunized with R4 peptide
Method: Using a fusion peptide R4-KLH obtained in Example 3 (4) between GD3R4 and KLH or a MAP form fusion peptide R4MAP-KLH created between GD3R4 and KLH, immunization was performed as described in (1) above.
Briefly, an emulsion mixed with an adjuvant (1:1, by volume) was administered to each member of groups of mice, each group consisting of 3 mice (CD-1), in an amount of 100 μL/mouse (for one administration (ip), peptide 30 μg/mouse) for immunization. In the case of R4-KLH, administration was performed every one week for one month, and subsequently every two weeks for one month; and in the case of R4MAP-KLH, every one week for 2 months. In any case, 4 days after the final immunization, blood was collected to thereby prepare antiserum samples.
(§1) The spleen aseptically removed from each of the above-immunized mice was minced in a 10% FCS-supplemented RPMI 1640 medium. By use of a nylon wool column, T-cell-rich lymphocytes were prepared and the cells were counted. The above medium containing the cells in an amount of 10^5 cells per 150 μL was added to each of the wells of a culture plate. PHA was added so as to attain a final concentration of 1 μg/mL. A peptide of the present invention or any of different gangliosides in PBS was added, and the mixture was incubated for 96 hours. A supernatant (100 μL) was obtained from each well. The IL-2 activity of the supernatant was determined through use of IL-2-dependent mouse cells, CTLL2. Briefly, the supernatant (100 μL) diluted 2 to 50-fold with a medium was added to the wells in an amount of 10^4 CTLL2 cells/well, followed by incubation at 37° C. for 48 hours. Subsequently, 3H-thymidine (0.5 μCi) was added to each well, followed by incubation for 6 hours. CTLL2 cells were recovered on a paper filter and counted for 3H.

[2] = tested on: T-cell-rich lymphocytes / IL-2-dependent CTLL2 cells; test: Cell response test: IL-2 activity (3H thymidine up-take of CTLL2 cells) in supernatant of spleen cells of mice immunized with GD3; type: cell-based, mouse; details: mice immunized with GD3
Method: Similar to the case of immunization with R4-KLH, antiserum samples were also prepared through immunization with GD3 (30 μg).
as §1

[3] = Titer against GD3 (ELISA) of antiserum from mice immunized with MAP peptides (Example 4); type: in vivo, mice (C57BL/6); details: individual mice
Method: Four species of GD3-mimetic peptide (MAP) obtained in Example 3 (2) was dissolved in PBS so as to attain a concentration of 200 μg/mL. The solution was added to Freund's complete (or incomplete) adjuvant (1:1, by volume), to thereby prepare an emulsion.
Eight mice (C57BL/6) were immunized by subcutaneous administration of the above emulsion (0.2 mL/mouse, in one administration, […]). Administration was performed every two weeks (for the second and subsequent administrations, Freund's incomplete adjuvant was used). After one week following respective administrations, blood was collected from the tail of each mouse, to thereby yield antiserum.
The antiserum obtained directly after the first administration will be referred to “1-st,” that obtained after the second administration will be referred to “2-nd,” and that obtained after the third administration will be referred to “3-rd.”
The titer, against GD3, of each of the antiserum samples (3×8 mice=24 samples) obtained in the (1) above was measured through ELISA as described below.
The thus-obtained purified GD3 was dissolved in methanol, whereby a GD3 solution having a concentration of 10 μg/mL was prepared. The GD3 solution was added to the wells of a 96-well micro-titer plate in amounts of 10 μL per well (which corresponds to 100 ng GD3 per well), and methanol was evaporated. Subsequently, a blocking solution (TBS supplemented with 1% BSA) was added to the wells in amounts of 50 μL per well, for blocking at 37° C. for 4 hours.
The supernatant was discarded. Each of the antiserum samples obtained in (1) above was diluted 100-fold, 400-fold, or 1,600 fold with the above-mentioned blocking solution. The diluted antiserum (50 μL) was added to each well for reaction at 4° C. overnight. The well was washed six times with TBS, and thereafter, HRP-labeled […] diluted 5,000-fold with the blocking solution was added (50 μL per well) for reaction for 2 hours at room temperature. The well was washed four times with TBS, and thereafter, enzymatic activity (peroxidase) of the well was detected with TMB solution (50 μL). The reaction was stopped with 1N HCl (50 μL), and the value corresponding to “420 nm-620 nm” was calculated.
A control sample was prepared as follows. […] The synthesized peptide was administered to a mouse for immunization, and the obtained antiserum served as a control sample. The titer of the control sample was obtained in a manner similar to that described above. (However, the number of provided mice was five, and only a 100-fold diluted solution was used.) This control peptide sample was also used in the form of MAP as described above.

Anti-GD2 antibody = test: ELISA of immobilized MAP-form peptides with control anti-GD2 antibody; type: binding; details: MAP form 100 ng/well
Method: A 0.1M NaHCO3 solution containing a GD3-mimetic peptide of the invention in the above MAP form (100 ng/100 μL) was added to the wells of a 96-well micro-titer plate, for immobilization at room temperature for one hour. Subsequently, in a manner similar to the ELISA method employed in Example 2, binding affinity of the GD3-mimetic peptide to GD3 antibody 4F6 was investigated.
Anti-GD2 antibody and anti-OAcGD3 antibody (Cerato, E., et al., Hybridoma, 16(4), 307-316 (1997)) were used as controls (these antibodies were kindly provided by from Dr. Portoukalian).

[4] = stimulant 1 μg/ml, supernatant dilution 1/20
[5] = stimulant 1 μg/ml, supernatant dilution 1/50
[6] = stimulant 1 μg/ml, supernatant dilution ½
[7] = stimulant 1 μg/ml, supernatant dilution ⅕
[8] = stimulant 2 μg/ml, supernatant dilution 1/20
[9] = stimulant 2 μg/ml, supernatant dilution 1/50
[10] = stimulant 2 μg/ml, supernatant dilution ½
[11] = stimulant 2 μg/ml, supernatant dilution ⅕
[12] = stimulant 5 μg/ml, supernatant dilution 1/20
[13] = stimulant 5 μg/ml, supernatant dilution 1/50
[14] = stimulant 5 μg/ml, supernatant dilution ½
[15] = stimulant 5 μg/ml, supernatant dilution ⅕

Sequence: LAPPRPRSELVFLSV (LAPPRPRSQLVFLSV) [GD3R1, tested as phage clone, MAP form or peptide]
- 3H Thymidine up-take into CTLL2 cells, mean ± SE (4 wells) [1, 4]: 949 ± 136
- 3H Thymidine up-take into CTLL2 cells, mean ± SE (4 wells) [1, 5]: 225 ± 38
- 3H Thymidine up-take into CTLL2 cells, mean ± SE (4 wells) [1, 6]: 3218 ± 716
- 3H Thymidine up-take into CTLL2 cells, mean ± SE (4 wells) [1, 7]: 1876 ± 281
- 3H Thymidine up-take into CTLL2 cells, mean ± SE (4 wells) [1, 8]: 845 ± 147
- 3H Thymidine up-take into CTLL2 cells, mean ± SE (4 wells) [1, 9]: 220 ± 40
- 3H Thymidine up-take into CTLL2 cells, mean ± SE (4 wells) [1, 10]: 3417 ± 542
- 3H Thymidine up-take into CTLL2 cells, mean ± SE (4 wells) [1, 11]: 1864 ± 327
- 3H Thymidine up-take into CTLL2 cells, mean ± SE (4 wells) [1, 12]: 901 ± 152
- 3H Thymidine up-take into CTLL2 cells, mean ± SE (4 wells) [1, 13]: 236 ± 45
- 3H Thymidine up-take into CTLL2 cells, mean ± SE (4 wells) [1, 14]: 3469 ± 612
- 3H Thymidine up-take into CTLL2 cells, mean ± SE (4 wells) [1, 15]: 1781 ± 285
- 3H Thymidine up-take into CTLL2 cells, mean ± SE (4 wells) [2, 4]: 888 ± 107
- 3H Thymidine up-take into CTLL2 cells, mean ± SE (4 wells) [2, 5]: 234 ± 43
- 3H Thymidine up-take into CTLL2 cells, mean ± SE (4 wells) [2, 6]: 3014 ± 671
- 3H Thymidine up-take into CTLL2 cells, mean ± SE (4 wells) [2, 7]: 1967 ± 276
- 3H Thymidine up-take into CTLL2 cells, mean ± SE (4 wells) [2, 8]: 906 ± 121
- 3H Thymidine up-take into CTLL2 cells, mean ± SE (4 wells) [2, 9]: 246 ± 38
- 3H Thymidine up-take into CTLL2 cells, mean ± SE (4 wells) [2, 10]: 3219 ± 546
- 3H Thymidine up-take into CTLL2 cells, mean ± SE (4 wells) [2, 11]: 1831 ± 259
- 3H Thymidine up-take into CTLL2 cells, mean ± SE (4 wells) [2, 12]: 942 ± 116
- 3H Thymidine up-take into CTLL2 cells, mean ± SE (4 wells) [2, 13]: 251 ± 44
- 3H Thymidine up-take into CTLL2 cells, mean ± SE (4 wells) [2, 14]: 3344 ± 497
- 3H Thymidine up-take into CTLL2 cells, mean ± SE (4 wells) [2, 15]: 1956 ± 285
- reactivity of antiserum with GD3 (ELISA absorbance) ([3]; antiserum 1st (after first administration), dilution factor 1/100, MAP 5 μg/mouse s.c.): 0.047 and 0.106 and 0.03 and 0.055 and 0.059 and 0.061 and 0.034 and 0.052
- reactivity of antiserum with GD3 (ELISA absorbance) ([3]; antiserum 1st, dilution factor 1/400): 0.026 and 0.057 and 0.024 and 0.052 and 0.034 and 0.027 and 0.017 and 0.039
- reactivity of antiserum with GD3 (ELISA absorbance) ([3]; antiserum 1st, dilution factor 1/1600): 0 (3×) and 0.005 and 0.008 and 0.016 and 0.004 and 0.007
- reactivity of antiserum with GD3 (ELISA absorbance) ([3]; antiserum 2nd (after second administration), dilution factor 1/100): 0.087 and 0.14 and 0.188 and 0.102 and 0.117 and 0.168 and 0.054 and 0.082
- reactivity of antiserum with GD3 (ELISA absorbance) ([3]; antiserum 2nd, dilution factor 1/400): 0.027 and 0.063 and 0.088 and 0.074 and 0.047 and 0.06 and 0.039 and 0.026
- reactivity of antiserum with GD3 (ELISA absorbance) ([3]; antiserum 2nd, dilution factor 1/1600): 0.016 and 0.022 and 0.034 and 0.019 (2×) and 0.014 and 0.024 and 0.01
- reactivity of antiserum with GD3 (ELISA absorbance) ([3]; antiserum 3rd (after third administration), dilution factor 1/100): 0.068 and 0.066 and 0.084 (2×) and 0.139 and 0.121 and 0.08 and 0.023
- reactivity of antiserum with GD3 (ELISA absorbance) ([3]; antiserum 3rd, dilution factor 1/400): 0.019 and 0.017 and 0.03 (2×) and 0.054 and 0.021 and 0.051 and 0.01
- reactivity of antiserum with GD3 (ELISA absorbance) ([3]; antiserum 3rd, dilution factor 1/1600): 0 (2×) and 0.002 and 0.008 and 0.003 (2×) and 0.001 and 0.004
- ELISA absorbance, Anti-GD2 antibody (Anti-GD2 antibody; Serum % 12.50%): 0.065
- ELISA absorbance, Anti-GD2 antibody (Anti-GD2 antibody; Serum % 25%): 0.067
- ELISA absorbance, Anti-GD2 antibody (Anti-GD2 antibody; Serum % 50%): 0.095
- ELISA absorbance, Anti-GD2 antibody (Anti-GD2 antibody; Serum % 100%): 0.123
